Experimental data from patent US6664267B1, “Crystalline fluoroquinolone arginine salt form” (Wockhardt Limited, priority 2002, dated 2003).
Where “and” joins values, the source holds several entries; their conditions need not be identical. Equal values may be shown once. Where a name gives a salt, the structure may show the parent alone. Read-outs that look alike come from different tables or passages of the source.

What was measured:
[1] = hygroscopicity / moisture uptake on exposure to humidity, determined gravimetrically; format: physicochemical
dissolution rate = format: physicochemical
[2] = antibacterial minimum inhibitory concentration (MIC); format: cell-based
respiratory pathogens = assay: treating respiratory pathogens
resistant mutants = assay: treating resistant mutants
[3] = tested on: slow-growing Staphylococci; assay: cidal action against slow-growing Staphylococci; format: cell-based
Staphylococci = assay: eradication of Staphylococci from vital organs and thigh muscle; format: in vivo; details: compared with the standard drugs
[4] = tested on: high density bacterial inoculum; assay: cidal effect with high density bacterial inoculum; format: cell-based; details: high density bacterial inoculum (10^8 cfu/ml)
[5] = bulk density determination; format: physicochemical
Source text: Untapped density=25 g/untapped volume.
Tapped density=25 g/Tapped volume.

[6] = mean mass diameter determination by laser diffraction; format: physicochemical; details: for Mean mass diameter: laser diffraction, four different samples made by the procedure of example 1, Hydrate
Source text: For mean mass diameter Master Sizer of Malvern Instrument LTD U.K. was used under the conditions listed below:
Analysis model: Polydisperse
Obstruction value: 20-23%

rats = details: rat, in vivo, iv
rodents = details: in vivo
[7] = in vivo
[8] = tested on: resistant Staphylococcus aureus
[9] = exposure at a relative humidity of 41%

CC1CCc2c(N3CCC(O)CC3)c(F)cc3c(=O)c(C(=O)O)cn1c23.N=C(N)NCCC[C@H](N)C(=O)O (racemic) [Example 8, RS-(±)-9-Fluoro-6,7-dihydro-8-(4-hydroxypiperidin-1-yl)-5-methyl-1-oxo-1H,5H-benzo[i,j]quinolizine-2-carboxylic Acid L-Arginine Salt]
antimicrobial activity (antimicrobial activity): have antimicrobial activity

CC1CCc2c(N3CCC(O)CC3)c(F)cc3c(=O)c(C(=O)O)cn1c23.N=C(N)NCCC[C@@H](N)C(=O)O (racemic) [Example 9, RS-(±)-9-Fluoro-6,7-dihydro-8-(4-hydroxypiperidin-1-yl)-5-methyl-1-oxo-1H,5H-benzo[i,j]quinolizine-2-carboxylic Acid D-Arginine Salt]
antimicrobial activity (antimicrobial activity): have antimicrobial activity

CC1CCc2c(N3CCC(O)CC3)c(F)cc3c(=O)c(C(=O)O)cn1c23.N=C(N)NCCCC(N)C(=O)O (racemic) [R, S-9-fluoro-6,7-dihydro-8-(4-hydroxypiperidin-1-yl)-5-methyl-1-oxo-1H,5H-benzo[i,j]-quinolizine-2-carboxylic acid DL-arginine salt]
antimicrobial activity (antimicrobial activity): have antimicrobial activity

C[C@@H]1CCc2c(N3CCC(O)CC3)c(F)cc3c(=O)c(C(=O)O)cn1c23.N=C(N)NCCCC(N)C(=O)O (stereo in doubt) [R-(+)-9-fluoro-6,7-dihydro-8-(4-hydroxypiperidin-1-yl)-5-methyl-1-oxo-1H,5H-benzo[i,j]-quinolizine-2-carboxylic acid DL-arginine salt]
antimicrobial activity (antimicrobial activity): have antimicrobial activity

C[C@H]1CCc2c(N3CCC(O)CC3)c(F)cc3c(=O)c(C(=O)O)cn1c23.N=C(N)NCCCC(N)C(=O)O (stereo in doubt) [S-(−)-9-fluoro-6,7-dihydro-8-(4-hydroxypiperidin-1-yl)-5-methyl-1-oxo-1H,5H-benzo[i,j]-quinolizine-2-carboxylic acid DL-arginine salt]
antimicrobial activity (antimicrobial activity): have antimicrobial activity

C[C@H]1CCc2c(N3CCC(O)CC3)c(F)cc3c(=O)c(C(=O)O)cn1c23 [Example 1, S-(−)-9-Fluoro-6,7-dihydro-8-(4-hydroxypiperidin-1-yl)-5-methyl-1-oxo-1H,5H-benzo[i,j]quinolizine-2-carboxylic Acid L-Arginine Salt Hydrate]
hygroscopicity [1]: to a certain degree hygroscopic
moisture absorption compared with the sodium salt ([1]; at specified humidity levels): less prone than the sodium salt to absorb moisture
dissolution rate (dissolution rate): acceptable dissolution rate
antibacterial minimum inhibitory concentration (MIC) values compared with the free acid [2]: same antibacterial minimum inhibitory concentration (MIC) values as the free active ingredient
retention of potency at acidic pH ([2]; acidic pH of 5.5): unusual ability to retain potency
effectiveness in treating respiratory pathogens (respiratory pathogens): effective
effectiveness in treating resistant mutants (resistant mutants): effective
cidal action [3]: superior cidal action
eradication efficacy (Staphylococci): scores over the standard drugs
cidal effect [4]: unusual superior cidal effect
bulk density (tapped) ([5]; 25 gm/tapped volume, tapped 150 times): 0.64 g/mL
bulk density (untapped) ([5]; 25 gm/untapped volume): 0.57 g/mL
Mean mass diameter [6]: 32.92 μm and 24.22 μm and 34.51 μm and 39.07 μm
Mean mass diameter ([6]; listed as S-(−)-9-fluoro-6,7-dihydro-8-(4-hydroxypiperidin-1-yl)-5-methyl-1-oxo-1H,5H-benz): less than or equal to 40 μm
Mean mass diameter, mean value ([6]; mean of four samples of Table 1): 32.68 μm
propensity to cause phlebitis (rats): lower propensity to cause phlebitis than the sodium and potassium salts
toxicity (rodents): less toxic in rodents than the alkali salt forms
bioavailability [7]: good bioavailability
activity against resistant Staphylococcus aureus [8]: potent activity

C[C@H]1CCc2c(N3CCC(O)CC3)c(F)cc3c(=O)c(C(=O)O)cn1c23.N=C(N)NCCC[C@@H](N)C(=O)O [Example 5, S-(−)-9-Fluoro-6,7-dihydro-8-(4-hydroxypiperidin-1-yl)-5-methyl-1-oxo-1H,5H-benzo[i,j]quinolizine-2-carboxylic Acid D-Arginine Salt]
antimicrobial activity (antimicrobial activity): have antimicrobial activity

C[C@@H]1CCc2c(N3CCC(O)CC3)c(F)cc3c(=O)c(C(=O)O)cn1c23.N=C(N)NCCC[C@H](N)C(=O)O [Example 6, R-(+)-9-Fluoro-6,7-dihydro-8-(4-hydroxypiperidin-1-yl)-5-methyl-1-oxo-1H,5H-benzo[i,j]quinolizine-2-carboxylic Acid L-Arginine Salt]
antimicrobial activity (antimicrobial activity): have antimicrobial activity

C[C@@H]1CCc2c(N3CCC(O)CC3)c(F)cc3c(=O)c(C(=O)O)cn1c23.N=C(N)NCCC[C@@H](N)C(=O)O [Example 7, R-(+)-9-Fluoro-6,7-dihydro-8-(4-hydroxypiperidin-1-yl)-5-methyl-1-oxo-1H,5H-benzo[i,j]quinolizine-2-carboxylic Acid D-Arginine Salt]
antimicrobial activity (antimicrobial activity): have antimicrobial activity

S-(−)-9-fluoro-6,7-dihydro-8-(4-hydroxypiperidin-1-yl)-5-methyl-1-oxo-1H,5H-benzo[i,j]quinolizine-2-carboxylic acid [reference compound]
antimicrobial activity compared with the R-(+)- and RS- acids (antimicrobial activity): more potent antimicrobial activity

S-(−)-9-fluoro-6,7-dihydro-8-(4-hydroxypiperidin-1-yl)-5-methyl-1-oxo-1H,5H-benzo[i,j]quinolizine-2-carboxylic acid, L-arginine salt 0.25 hydrate [reference compound]
hygroscopicity [1, 9]: highly hygroscopic and turn into syrups

S-(−)-9-fluoro-6,7-dihydro-8-(4-hydroxypiperin-1-yl)-5-methyl-1-oxo-1H,5H-benzo[i,j]quinolizine-2-carboxylic acid, L-arginine salt, 0.75 hydrate [reference compound]
hygroscopicity [1, 9]: highly hygroscopic and turn into syrups
